Here are results for 6 compounds from patent US20100261765A1, “MINERALOCORTICOID RECEPTOR MODULATORS” (priority 2007, published 2010).

The target in data set [1] is T1, recombinant rhesus mineralocorticoid receptor (Macaca mulatta, UniProt A0A5F8ATS5).
T1 construct: made in house; host or cells: insect cells infected with recombinant baculovirus; clarified lysate used
T1 sequence (A0A5F8ATS5 1-984): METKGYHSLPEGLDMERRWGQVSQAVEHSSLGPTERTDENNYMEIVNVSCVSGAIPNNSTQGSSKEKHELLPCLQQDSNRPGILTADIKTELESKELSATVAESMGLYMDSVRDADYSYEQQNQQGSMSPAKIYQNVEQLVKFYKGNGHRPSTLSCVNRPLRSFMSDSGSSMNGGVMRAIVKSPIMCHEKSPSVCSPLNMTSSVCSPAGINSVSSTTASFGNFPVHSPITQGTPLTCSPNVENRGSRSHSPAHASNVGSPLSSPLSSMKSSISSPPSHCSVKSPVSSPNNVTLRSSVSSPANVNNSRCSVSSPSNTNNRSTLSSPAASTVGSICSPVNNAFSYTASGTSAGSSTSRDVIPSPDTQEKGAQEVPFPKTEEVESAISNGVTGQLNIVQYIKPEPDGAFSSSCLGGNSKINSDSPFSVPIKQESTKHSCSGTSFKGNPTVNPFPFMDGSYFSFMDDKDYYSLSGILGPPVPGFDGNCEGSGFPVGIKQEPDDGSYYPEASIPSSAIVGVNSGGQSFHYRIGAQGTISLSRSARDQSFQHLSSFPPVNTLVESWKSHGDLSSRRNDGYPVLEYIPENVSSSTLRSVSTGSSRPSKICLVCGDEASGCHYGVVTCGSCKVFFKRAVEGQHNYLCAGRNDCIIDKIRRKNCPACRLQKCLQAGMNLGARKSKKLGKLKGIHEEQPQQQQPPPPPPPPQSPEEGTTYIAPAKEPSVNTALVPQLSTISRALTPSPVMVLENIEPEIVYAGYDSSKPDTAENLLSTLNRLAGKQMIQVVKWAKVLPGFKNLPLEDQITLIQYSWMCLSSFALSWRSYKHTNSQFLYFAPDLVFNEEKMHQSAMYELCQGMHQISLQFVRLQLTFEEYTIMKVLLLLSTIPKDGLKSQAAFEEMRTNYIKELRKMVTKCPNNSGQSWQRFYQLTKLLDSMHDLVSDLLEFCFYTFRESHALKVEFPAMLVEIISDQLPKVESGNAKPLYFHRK
Nature of the data set: Mineralocorticoid receptor binding affinity, [3H]-aldosterone filter binding assay. On the procedure: Measurement of Mineralocorticoid Receptor Binding Affinity
The binding affinity of compounds for the mineralocorticoid receptor was determined by measuring their ability to prevent binding of radiolabeled aldosterone to recombinant rhesus mineralocorticoid receptor in a traditional filter binding assay protocol.
Rhesus mineralocorticoid receptor cDNA was cloned from a cDNA library using and used to prepare a recombinant baculovirus encoding the rhesus mineralocorticoid receptor coding sequence by standard molecular biological and cell biological methods. […] Cells were collected and lysed. The lysates were clarified by centrifugation and stored at −80 C until use in the radioligand binding assay.
[^3H]-Aldosterone (1 mCi/ml, 70-100 Ci/mmol) was purchased from Perkin Elmer (NET419). Test compounds were dissolved in DMSO and diluted in DMSO to 50 times the desired final concentrations for 3-fold serial dilution dose response curves. […] The insect cell lysate containing rhesus mineralocorticoid receptor was thawed and diluted to 0.7 mg protein/mL. Assay were started by combining 20 μL of test compound solution, 920 μL of diluted insect cell lysate, and 60 μL of [^3H]-aldosterone working solution in 2-mL 96-well polypropylene square well plates (USA Scientific) at 20° C. The mixture was incubated for 3 hr with continuous agitation on a platform shaker. […] The filter plate was washed 3 times with 0.5 mL of 50 mM Tris-HCl, pH 7.4 and then dried overnight at 37° C. in a vacuum oven. […] Non-specific radioligand binding was determined by adding non-radiolabeled aldosterone (0.5 mM in DMSO) to the assay mixture to a final concentration of 10 μM in place of test compound. IC50 and Ki values were determined using a four parameter logistic fit using a customized assay data analyzer software package.

For a further data set, the target named is T2, Cav1.2 (Homo sapiens, UniProt Q13936).
T2 construct: expressed in transfected cells; host or cells: HEK293 cell line (Xia, et al., 2004) also expressing Kir2.3
T2 sequence (Q13936 whole entry): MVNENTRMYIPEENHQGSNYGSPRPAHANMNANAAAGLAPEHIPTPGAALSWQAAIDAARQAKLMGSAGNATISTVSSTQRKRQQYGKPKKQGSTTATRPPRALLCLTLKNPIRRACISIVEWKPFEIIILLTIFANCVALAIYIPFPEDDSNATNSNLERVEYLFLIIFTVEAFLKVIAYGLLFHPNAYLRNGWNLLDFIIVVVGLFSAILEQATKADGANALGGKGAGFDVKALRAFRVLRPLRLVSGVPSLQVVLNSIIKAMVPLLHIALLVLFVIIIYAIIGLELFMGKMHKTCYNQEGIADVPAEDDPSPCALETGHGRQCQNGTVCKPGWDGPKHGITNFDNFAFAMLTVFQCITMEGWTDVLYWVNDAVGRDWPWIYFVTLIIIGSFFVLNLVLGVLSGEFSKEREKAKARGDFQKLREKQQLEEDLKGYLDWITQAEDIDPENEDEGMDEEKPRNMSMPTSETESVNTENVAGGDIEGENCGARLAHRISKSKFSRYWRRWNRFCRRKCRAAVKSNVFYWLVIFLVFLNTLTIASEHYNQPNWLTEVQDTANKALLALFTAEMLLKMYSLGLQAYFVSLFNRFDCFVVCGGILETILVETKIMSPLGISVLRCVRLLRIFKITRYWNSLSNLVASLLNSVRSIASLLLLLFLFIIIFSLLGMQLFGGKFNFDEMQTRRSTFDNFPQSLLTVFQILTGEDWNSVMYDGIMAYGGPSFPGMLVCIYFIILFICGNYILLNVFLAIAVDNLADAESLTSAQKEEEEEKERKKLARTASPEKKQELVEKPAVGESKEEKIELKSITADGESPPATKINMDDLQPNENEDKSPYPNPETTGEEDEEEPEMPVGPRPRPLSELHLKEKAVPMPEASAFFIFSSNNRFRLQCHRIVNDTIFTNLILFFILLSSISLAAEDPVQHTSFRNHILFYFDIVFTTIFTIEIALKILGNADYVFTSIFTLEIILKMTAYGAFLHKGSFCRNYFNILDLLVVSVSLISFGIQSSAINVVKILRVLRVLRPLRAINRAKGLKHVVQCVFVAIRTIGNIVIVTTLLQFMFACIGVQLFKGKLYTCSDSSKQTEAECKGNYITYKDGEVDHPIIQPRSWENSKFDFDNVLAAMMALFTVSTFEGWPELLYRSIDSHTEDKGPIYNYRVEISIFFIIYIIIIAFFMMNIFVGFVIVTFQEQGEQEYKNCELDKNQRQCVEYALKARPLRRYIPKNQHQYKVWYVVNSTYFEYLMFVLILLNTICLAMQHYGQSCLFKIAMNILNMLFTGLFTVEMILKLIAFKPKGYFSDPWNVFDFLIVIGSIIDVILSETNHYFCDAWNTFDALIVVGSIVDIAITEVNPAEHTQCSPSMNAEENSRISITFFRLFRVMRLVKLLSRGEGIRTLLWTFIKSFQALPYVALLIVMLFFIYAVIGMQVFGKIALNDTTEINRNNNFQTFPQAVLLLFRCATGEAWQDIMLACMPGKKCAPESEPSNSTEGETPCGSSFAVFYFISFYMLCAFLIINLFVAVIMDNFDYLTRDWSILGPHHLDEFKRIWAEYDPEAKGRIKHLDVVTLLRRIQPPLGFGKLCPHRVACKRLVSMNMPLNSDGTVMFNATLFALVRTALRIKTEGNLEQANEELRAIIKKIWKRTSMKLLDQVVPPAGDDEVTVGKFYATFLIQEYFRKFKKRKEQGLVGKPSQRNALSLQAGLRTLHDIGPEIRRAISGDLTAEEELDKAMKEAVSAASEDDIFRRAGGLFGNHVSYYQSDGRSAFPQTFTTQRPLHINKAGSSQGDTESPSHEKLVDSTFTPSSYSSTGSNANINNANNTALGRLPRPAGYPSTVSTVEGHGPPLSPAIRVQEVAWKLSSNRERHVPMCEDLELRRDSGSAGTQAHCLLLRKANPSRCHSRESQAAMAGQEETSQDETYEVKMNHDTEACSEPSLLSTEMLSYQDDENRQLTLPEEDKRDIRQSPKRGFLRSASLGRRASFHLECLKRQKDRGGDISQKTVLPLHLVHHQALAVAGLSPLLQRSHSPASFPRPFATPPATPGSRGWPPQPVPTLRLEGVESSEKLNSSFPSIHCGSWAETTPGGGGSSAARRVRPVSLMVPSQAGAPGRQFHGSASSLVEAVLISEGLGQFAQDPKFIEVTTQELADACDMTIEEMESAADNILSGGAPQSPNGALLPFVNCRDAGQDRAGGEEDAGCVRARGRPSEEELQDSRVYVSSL
T2 sequence (P54289 25-946 partner limits assumed): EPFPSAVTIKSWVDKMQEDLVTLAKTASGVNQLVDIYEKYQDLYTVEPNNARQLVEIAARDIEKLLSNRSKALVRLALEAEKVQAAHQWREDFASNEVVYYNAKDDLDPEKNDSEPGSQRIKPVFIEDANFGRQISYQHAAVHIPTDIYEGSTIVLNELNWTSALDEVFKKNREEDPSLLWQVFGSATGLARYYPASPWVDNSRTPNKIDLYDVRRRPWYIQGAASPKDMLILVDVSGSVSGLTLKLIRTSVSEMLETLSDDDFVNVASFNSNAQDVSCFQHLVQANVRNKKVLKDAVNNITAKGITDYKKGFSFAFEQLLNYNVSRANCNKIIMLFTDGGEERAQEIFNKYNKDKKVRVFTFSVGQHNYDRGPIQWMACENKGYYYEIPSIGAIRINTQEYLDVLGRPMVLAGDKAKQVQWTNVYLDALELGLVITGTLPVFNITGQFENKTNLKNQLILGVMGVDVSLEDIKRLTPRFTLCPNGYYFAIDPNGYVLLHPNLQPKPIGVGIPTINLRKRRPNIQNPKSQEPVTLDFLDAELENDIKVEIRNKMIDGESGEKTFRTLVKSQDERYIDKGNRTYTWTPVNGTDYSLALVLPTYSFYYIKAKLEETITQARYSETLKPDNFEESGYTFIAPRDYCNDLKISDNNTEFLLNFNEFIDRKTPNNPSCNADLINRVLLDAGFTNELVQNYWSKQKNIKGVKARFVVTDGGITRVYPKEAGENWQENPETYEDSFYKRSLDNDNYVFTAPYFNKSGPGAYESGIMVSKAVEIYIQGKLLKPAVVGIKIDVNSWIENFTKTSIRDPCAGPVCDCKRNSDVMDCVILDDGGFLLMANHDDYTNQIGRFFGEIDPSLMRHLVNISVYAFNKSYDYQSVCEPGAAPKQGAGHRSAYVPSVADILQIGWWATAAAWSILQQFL
T2 sequence (P54289 947-1103 partner limits assumed): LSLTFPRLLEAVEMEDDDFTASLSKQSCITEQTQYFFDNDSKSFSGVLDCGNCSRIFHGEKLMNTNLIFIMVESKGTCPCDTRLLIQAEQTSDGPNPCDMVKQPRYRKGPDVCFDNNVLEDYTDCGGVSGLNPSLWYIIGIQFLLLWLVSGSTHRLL
T2 sequence (Q08289 whole entry partner): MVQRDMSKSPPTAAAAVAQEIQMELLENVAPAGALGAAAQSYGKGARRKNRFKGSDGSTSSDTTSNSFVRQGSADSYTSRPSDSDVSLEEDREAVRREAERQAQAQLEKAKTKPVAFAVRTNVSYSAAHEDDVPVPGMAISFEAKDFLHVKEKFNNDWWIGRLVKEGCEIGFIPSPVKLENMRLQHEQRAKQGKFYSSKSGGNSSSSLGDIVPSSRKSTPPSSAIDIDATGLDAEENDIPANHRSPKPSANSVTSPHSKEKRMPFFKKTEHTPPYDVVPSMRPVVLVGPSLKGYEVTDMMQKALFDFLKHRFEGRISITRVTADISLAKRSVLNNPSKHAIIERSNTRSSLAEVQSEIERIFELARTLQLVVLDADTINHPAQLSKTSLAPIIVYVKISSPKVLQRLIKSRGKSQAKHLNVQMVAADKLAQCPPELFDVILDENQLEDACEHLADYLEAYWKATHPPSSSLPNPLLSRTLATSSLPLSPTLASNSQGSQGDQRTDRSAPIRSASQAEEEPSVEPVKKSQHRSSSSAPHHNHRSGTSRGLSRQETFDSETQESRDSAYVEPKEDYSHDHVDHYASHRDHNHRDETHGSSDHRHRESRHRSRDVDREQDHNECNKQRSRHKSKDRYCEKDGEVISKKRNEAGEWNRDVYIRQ
Briefly: Calcium channel block, FLIPR TETRA fluorescence assay in HEK293 cells expressing L-type calcium channels. The conditions noted are these: pH 7.2, 25 mM potassium; for inhibition at 30 min, 0.3 μM: 0.3 μM compound, read-out: FLIPRIETRA Cav1.2 % Inhibition 0.3 μM; for inhibition at 30 min, 1 μM: 1 μm compound, read-out: FLIPRIETRA Cav1.2 % Inhibition 1 μm; for inhibition at 30 min, 3 μM: 3 μm compound, read-out: FLIPRIETRA Cav1.2 % Inhibition 3 μm; for inhibition at 30 min, 10 μM: 10 μm compound, read-out: FLIPRIETRA Cav1.2 % Inhibition 10 μm; for inhibition at 30 min, 30 μM: 30 μm compound, read-out: FLIPRIETRA Cav1.2 % Inhibition 30 μm. It counts as cell-based. As for the experimental part:
Measurement of Calcium Channel Block
A high-throughput fluorescence assay for state-dependent block of L-type channels was established as a counterscreen for blockers of N-type calcium channels. […] This allows the cell membrane potential to be preset during compound incubation, which can be used to assay state-dependent channel block. Running the assay in the presence of high potassium (25 mM) sets the membrane potential to a value (−35 mV) at which approximately half of the calcium channels are inactivated and some are open. This condition favors block by many L-type calcium channel blockers that lower blood pressure, including dihydropyridines, phenylalkylamines and benzothiazepines.
Initially, the compounds were incubated in 0.005 μM calcium and 25 mM potassium for 30 minutes. Calcium influx was triggered by buffer addition that raises the calcium concentration to 2 mM while maintaining the potassium concentration at 25 mM. Changes in intracellular calcium were then monitored using a calcium-sensitive fluorescent dye (fluo-4) and a FLIPR^TETRA plate reader.
The following experimental protocol was used:
1. Cells were seeded in a Poly-D-Lysine Coated 384-well plate (50 μl/well) and incubated overnight at 37° C. under 10% CO2;
4. Cells were then incubated in the dark at 25° C. for 30 minutes;
5. […] 25 mM KCl, 0.005 mM CaCl2, 1.7 mM MgCl2, 10 HEPES, pH=7.2;
6. 0.025 ml of 25 mM K PPB was then added, with or without the presence of a test compound;
7. Cells incubated in the dark at 25° C. for 30 min
8. Cell plates are then read on the FLIPR^TETRA instrument, Excitation=480 nm, Emission=535 nm;

The subject of data set [2] is patients suffering from advanced CHF. The conditions noted are these: in combination with standard CHF therapy; cited from earlier work.
[3] abbreviates: average of Rep#1 and Rep#2, read-out: MRBIND Ki (nM) Average.
[4] abbreviates: replicate 1, read-out: MRBIND Ki (nM) Rep#1.
The mark [5] stands for this setting: replicate 2, read-out: MRBIND Ki (nM) Rep#2.

Where two headings read alike, the source gives them in different places.

By Ki is commonly meant the equilibrium dissociation constant of an inhibitor or competing ligand from its target. What is called inhibition is the share of the control response that was lost under treatment. For the compound `C=Cc1ccccc1C1C(C(=O)OC)=C(C)NC(C)=C1C(=O)OC` [dimethyl 2,6-dimethyl-4-(2-vinylphenyl)-1,4-dihydropyridine-3,5-dicarboxylate], in data set [1] (setting [3]), the Ki is 489 nM. In addition, in data set [1] (setting [4]), the inhibition constant (Ki) turned out to be 570 nM. Further, in data set [1] (setting [5]), the inhibitory constant (Ki) was 408 nM. On Cav1.2, the inhibition at 30 min, 0.3 μM came out at 74%; the inhibition at 30 min, 1 μM amounted to 74%; the inhibition at 30 min, 3 μM came out at 78%; the inhibition at 30 min, 10 μM was 87%.

Turning to `COC(=O)C1=C(C)NC(C)=C(C(=O)OC)C1c1cccc(Cl)c1Cl` [dimethyl 4-(2,3-dichlorophenyl)-2,6-dimethyl-1,4-dihydropyridine-3,5-dicarboxylate], the Ki in data set [1] (setting [3]) came out at 375 nM. The Ki in data set [1] (setting [4]) was found to be 382 nM. Moreover, the inhibition constant Ki in data set [1] (setting [5]) is 368 nM. In addition, on Cav1.2, the inhibition at 30 min, 0.3 μM was 73%; the inhibition at 30 min, 1 μM was 75%; the inhibition at 30 min, 3 μM turned out to be 77%; the inhibition at 30 min, 10 μM came out at 78%. Moreover, on Cav1.2, the inhibition at 30 min, 30 μM is 84%.

As to `COC(=O)C1=C(C)NC(C)=C(C(=O)OC)C1c1ccc(Cl)c(Cl)c1` [dimethyl 4-(3,4-dichlorophenyl)-2,6-dimethyl-1,4-dihydropyridine-3,5-dicarboxylate], the Ki in data set [1] (setting [3]) was determined as 203 nM. The Ki in data set [1] (setting [4]) turned out to be 83 nM. Also, the inhibition constant Ki in data set [1] (setting [5]) was found to be 324 nM. Also, on Cav1.2, the inhibition at 30 min, 0.3 μM came out at 34%; the inhibition at 30 min, 1 μM came to 59%; the inhibition at 30 min, 3 μM amounted to 77%; the inhibition at 30 min, 10 μM was 87%. Besides, on Cav1.2, the inhibition at 30 min, 30 μM worked out at 89%.

Regarding `CCCC1=C(C(=O)OCC)C(c2ccccc2Cl)C(C#N)=C(SC)N1` (stereo not shown) [ethyl 4-(2-chlorophenyl)-5-cyano-6-(methylthio)-2-propyl-1,4-dihydropyridine-3-carboxylate], in data set [1] (setting [3]), the inhibition constant Ki was 37.3 nM. In data set [1] (setting [4]), the Ki is 23.6 nM. The Ki in data set [1] (setting [5]) is 51 nM. For the same compound, on Cav1.2, the inhibition at 30 min, 0.3 μM stood at 53%; the inhibition at 30 min, 1 μM was found to be 73%; the inhibition at 30 min, 3 μM is 74%; the inhibition at 30 min, 10 μM was found to be 80%.

With `CCOC(=O)C1=C(C)NC(C)=C(C(=O)OC(C)C)C1c1ccc([N+](=O)[O-])cc1` (stereo not shown) [ethyl isopropyl 2,6-dimethyl-4-(4-nitrophenyl)-1,4-dihydropyridine-3,5-dicarboxylate], the Ki in data set [1] (setting [3]) stood at 114 nM. For the same compound, the inhibition constant (Ki) in data set [1] (setting [4]) was found to be 77 nM. In data set [1] (setting [5]), the Ki was 152 nM. Moreover, at Cav1.2, the inhibition at 30 min, 0.3 μM was determined as 28%; the inhibition at 30 min, 1 μM came out at 49%; the inhibition at 30 min, 3 μM was 63%; the inhibition at 30 min, 10 μM stood at 73%. Further, the inhibition at 30 min, 30 μM at Cav1.2 turned out to be 86%.

In the case of `CC(=O)S[C@@H]1CC2=CC(=O)CC[C@]2(C)[C@H]2CC[C@@]3(C)[C@@H](CC[C@@]34CCC(=O)O4)[C@H]12` [spironolactone], in data set [2], the “reduction of cardiac related mortality” value is 30% and the “reduction of frequency of hospitalization” value is 33%.
